Measured values published in ChEMBL document CHEMBL1145289, “Propidium-based polyamine ligands as potent inhibitors of acetylcholinesterase and acetylcholinesterase-induced amyloid-beta aggregation” (J Med Chem, 2005).

Experiments:
[1] = molecular target: T1, Acetylcholinesterase (Homo sapiens, UniProt P22303)
Description: Competitive inhibition constant for Acetylcholinesterase

[2] = molecular target: T1, Acetylcholinesterase; remark: listed apart in the source
Description: Inhibition of Acetylcholinesterase

[3] = molecular target: Cholinesterase (Homo sapiens, UniProt P06276)
Chain of Cholinesterase (P06276 whole entry): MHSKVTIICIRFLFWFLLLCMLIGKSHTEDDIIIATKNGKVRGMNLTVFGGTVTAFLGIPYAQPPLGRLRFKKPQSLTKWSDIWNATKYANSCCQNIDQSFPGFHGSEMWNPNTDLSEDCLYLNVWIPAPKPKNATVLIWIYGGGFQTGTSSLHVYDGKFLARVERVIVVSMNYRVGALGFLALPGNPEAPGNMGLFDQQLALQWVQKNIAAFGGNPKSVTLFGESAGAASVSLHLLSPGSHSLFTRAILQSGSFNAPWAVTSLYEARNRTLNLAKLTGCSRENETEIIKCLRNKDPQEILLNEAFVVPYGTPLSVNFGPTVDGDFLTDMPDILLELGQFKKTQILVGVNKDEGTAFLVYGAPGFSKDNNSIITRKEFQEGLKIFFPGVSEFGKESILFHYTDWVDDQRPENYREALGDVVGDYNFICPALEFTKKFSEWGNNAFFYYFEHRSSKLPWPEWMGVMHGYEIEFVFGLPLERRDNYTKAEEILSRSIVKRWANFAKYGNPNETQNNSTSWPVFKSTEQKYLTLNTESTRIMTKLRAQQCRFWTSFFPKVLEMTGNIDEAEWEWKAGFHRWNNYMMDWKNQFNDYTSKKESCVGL
Description: Inhibition of Butyrylcholinesterase

T1 sequence (P22303 whole entry): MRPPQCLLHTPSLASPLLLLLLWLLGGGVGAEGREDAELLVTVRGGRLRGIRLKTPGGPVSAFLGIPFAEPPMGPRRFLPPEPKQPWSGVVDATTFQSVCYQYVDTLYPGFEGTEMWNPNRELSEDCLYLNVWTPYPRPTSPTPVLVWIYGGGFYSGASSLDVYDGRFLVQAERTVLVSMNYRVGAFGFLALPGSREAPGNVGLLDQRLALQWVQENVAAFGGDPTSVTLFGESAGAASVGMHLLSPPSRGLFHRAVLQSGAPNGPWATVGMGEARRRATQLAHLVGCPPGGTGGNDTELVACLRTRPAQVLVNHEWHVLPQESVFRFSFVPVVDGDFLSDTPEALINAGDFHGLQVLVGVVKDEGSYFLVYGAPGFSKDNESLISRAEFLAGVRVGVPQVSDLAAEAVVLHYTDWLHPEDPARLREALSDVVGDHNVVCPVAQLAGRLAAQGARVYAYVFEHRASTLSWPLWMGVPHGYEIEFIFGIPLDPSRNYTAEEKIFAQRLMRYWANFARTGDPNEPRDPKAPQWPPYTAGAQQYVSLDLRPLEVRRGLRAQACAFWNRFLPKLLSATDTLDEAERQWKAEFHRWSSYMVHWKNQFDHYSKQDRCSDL

SMILES	Ki [1] [nM]	IC50 [2] [nM]	IC50 [3] [nM]
Nc1ccc2c(c1)c(-c1ccccc1)[n+](CCCNCCCNCCCNc1c3c(nc4ccccc14)CCCC3)c1cc(N)ccc21	1.49	1.55	63.7
COc1ccccc1CN(C)CCCN(C)CCCNCCC[n+]1c(-c2ccccc2)c2cc(N)ccc2c2ccc(N)cc21	894	952	2190
COc1ccccc1CN(C)CCCCCC(=O)N(C)CCCCCCCCN(C)C(=O)CCCCCN(C)Cc1ccccc1OC [CAPROCTAMINE]	–	–	11600
